Values joined by “and” are separate entries in the source; they are usually repeats but may differ in a detail not shown here. Equal entries are not always repeated.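 All cell lines were grown in 96-well plates and treated with compound for 48 hours. At the GI50, growth is halved. Definition used: TGI = concentration required for complete inhibition of growth.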
How the values were obtained:
Assay in all cases: NCI-60 cell line screen, 48 h
OVCAR-3 ovarian = system: OVCAR-3 ovarian
SF-268 CNS = system: SF-268 CNS
MOLT-4 leukemia = system: MOLT-4 leukemia
K-562 leukemia = system: K-562 leukemia
UACC-62 melanoma = system: UACC-62 melanoma
PC-3 prostate = system: PC-3 prostate
ACHN renal = system: ACHN renal
SNB-75 CNS = system: SNB-75 CNS
RPMI-8226 leukemia = system: RPMI-8226 leukemia
NCI-H226 lung = system: NCI-H226 lung

SMILES | GI50 (OVCAR-3 ovarian) | TGI (OVCAR-3 ovarian) | GI50 (SF-268 CNS) | TGI (SF-268 CNS) | GI50 (MOLT-4 leukemia) | TGI (MOLT-4 leukemia) | GI50 (K-562 leukemia) | TGI (K-562 leukemia) | GI50 (UACC-62 melanoma) | TGI (UACC-62 melanoma) | GI50 (PC-3 prostate) | TGI (PC-3 prostate) | GI50 (ACHN renal) | TGI (ACHN renal) | GI50 (SNB-75 CNS) | TGI (SNB-75 CNS) | GI50 (RPMI-8226 leukemia) | TGI (RPMI-8226 leukemia) | GI50 (NCI-H226 lung) | TGI (NCI-H226 lung)
Cc1cc([N+](=O)[O-])c2ccccc2[n+]1[O-] | 0.392 µM and 0.319 µM | 1.71 µM and 1.25 µM | 0.396 µM and 0.405 µM | 5.84 µM and 5.82 µM | 0.869 µM and 1.19 µM | 7.8 µM and 5.95 µM | 0.156 µM and 0.0991 µM | 4.28 µM and 3.04 µM | 0.252 µM and 0.254 µM | 0.89 µM and 0.833 µM | 0.165 µM and 0.149 µM | 1.01 µM and 0.663 µM | 0.0758 µM and 0.0614 µM | 0.394 µM and 0.721 µM | 0.421 µM and 0.165 µM | 2.09 µM and 0.722 µM | 0.0602 µM and 0.0308 µM | 0.359 µM and 0.0948 µM | 0.571 µM and 0.927 µM | 3.27 µM and 4.62 µM
NC(=S)c1c(N)n(C2OC(CO)C(O)C2O)c2ncnc(N)c12 (centres undefined) | 0.287 µM | 1.2 µM | 0.425 µM | 4.52 µM | 0.245 µM | 0.927 µM | 0.0622 µM | 0.494 µM | 0.263 µM | 1.37 µM | 0.221 µM | – | 0.268 µM | > 100 µM | 0.885 µM | 4.17 µM | 0.511 µM | 3.05 µM | 0.695 µM | 16 µM
CCOC(=O)c1cnc2c(C)cccc2c1Nc1ccc(C(C)=O)cc1 | 26.1 µM | > 100 µM | 18.3 µM | 64.2 µM | 43.6 µM | > 100 µM | > 100 µM | > 100 µM | 11.4 µM | > 100 µM | 36.6 µM | > 100 µM | 33.5 µM | > 100 µM | 15.4 µM | 51 µM | 30.9 µM | > 100 µM | 7.01 µM | > 100 µM
CN1C(=O)C2(c3ccccc31)N(c1ccc(Cl)cc1)C(=O)C2(c1ccccc1)c1ccccc1 (centres undefined) | 20.2 µM | > 100 µM | > 100 µM | > 100 µM | 9.86 µM | > 100 µM | 4.28 µM | 95.3 µM | 39.7 µM | > 100 µM | 5.63 µM | > 100 µM | 78.4 µM | > 100 µM | 17.8 µM | 90.5 µM | 6.25 µM | > 100 µM | > 100 µM | > 100 µM
O=C1NC(=NCCCc2ccccc2)S/C1=C\c1ccc2ncccc2c1 | 4.81 µM | 10.6 µM | 5.39 µM | 12.5 µM | 7.31 µM | 18.9 µM | 9.12 µM | > 25 µM | 4.65 µM | 10.9 µM | 5.62 µM | 15.9 µM | 5.08 µM | 15.6 µM | 2.3 µM | 6.69 µM | 5.52 µM | 14.6 µM | 4.2 µM | 10.7 µM
CCCCCCCCCCCC[n+]1ccc2ccccc2c1 | 0.579 µM | 1.89 µM | 1.22 µM | 2.57 µM | 0.681 µM | 2.65 µM | 0.247 µM | 1.96 µM | 0.343 µM | 1.63 µM | 0.219 µM | 1.12 µM | 1.89 µM | 7.56 µM | 1.14 µM | 2.78 µM | 0.295 µM | 0.949 µM | 1.1 µM | 3.85 µM

From PubChem BioAssay (NCI)
